Results on 13 compounds are retold here after US11826351B2, “Compounds useful as kinase inhibitors” (Loxo Oncology, Inc., priority 2015, dated 2023).

In assay [1] the test system is OCI-Ly10 human DLBCL cells. Kind of assay: OCI-Ly10 anti-proliferative activity (Resazurin). Particulars: OCI-Ly10 cells, 72 h compound treatment, Resazurin, read-out: Proliferation Assay OCI-Ly10-20% FBS. The class given is cell-based. In short, it runs like this: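 OCI-Ly10 human DLBCL cells, whose growth depends on NFκB signalling, were seeded at 7.5×10^3 cells per well in 96-well plates with a range of compound concentrations and kept at 37° C for 72 h. Resazurin was then added, and after 5 h fluorescence was read at 590 nm.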
Background: The colour change of resazurin is a common sign of viable cells or microbes.

For assay [2], the target named is T1, Recombinant BTK^WT kinase (Homo sapiens, UniProt Q06187).
T1 construct: purchased Invitrogen
T1 sequence (Q06187 whole entry): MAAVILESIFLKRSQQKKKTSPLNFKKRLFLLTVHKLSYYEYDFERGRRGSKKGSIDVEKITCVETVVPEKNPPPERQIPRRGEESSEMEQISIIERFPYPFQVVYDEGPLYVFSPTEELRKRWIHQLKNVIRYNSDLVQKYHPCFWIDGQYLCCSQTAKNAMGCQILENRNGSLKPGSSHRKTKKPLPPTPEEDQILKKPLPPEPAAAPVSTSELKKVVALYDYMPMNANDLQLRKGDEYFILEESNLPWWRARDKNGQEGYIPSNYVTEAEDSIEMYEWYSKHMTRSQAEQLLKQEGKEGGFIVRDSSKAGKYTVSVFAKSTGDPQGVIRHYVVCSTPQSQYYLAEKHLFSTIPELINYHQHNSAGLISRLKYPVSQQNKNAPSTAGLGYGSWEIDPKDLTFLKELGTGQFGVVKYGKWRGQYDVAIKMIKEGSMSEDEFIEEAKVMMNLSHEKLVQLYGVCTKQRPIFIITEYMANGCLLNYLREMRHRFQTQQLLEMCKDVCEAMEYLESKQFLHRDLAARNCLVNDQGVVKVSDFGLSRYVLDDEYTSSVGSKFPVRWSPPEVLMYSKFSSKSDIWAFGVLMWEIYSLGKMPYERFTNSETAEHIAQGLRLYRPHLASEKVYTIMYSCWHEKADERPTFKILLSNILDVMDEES
Put plainly: BTK WT binding affinity (LanthaScreen TR-FRET). The conditions noted are these: Kinase Tracer 236, 5 h incubation. In short, it runs like this:
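Tracer-displacement TR-FRET: 2.5 nM recombinant BTK^WT, 2 nM Eu anti-His antibody and 15 nM Kinase Tracer 236 incubated with varying inhibitor concentrations for 5 h in Kinase Buffer A. Signal read at 340 nm excitation, 615/665 nm emission; IC50 from variable-slope log[inhibitor]–response fit.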
On the technique in general: In TR-FRET formats the signal depends on donor and acceptor labels being close together.

The target in assay [3] is T2, Recombinant EGFR (Homo sapiens, UniProt P00533).
T2 construct: purchased Invitrogen
T2 sequence (P00533 25-1210): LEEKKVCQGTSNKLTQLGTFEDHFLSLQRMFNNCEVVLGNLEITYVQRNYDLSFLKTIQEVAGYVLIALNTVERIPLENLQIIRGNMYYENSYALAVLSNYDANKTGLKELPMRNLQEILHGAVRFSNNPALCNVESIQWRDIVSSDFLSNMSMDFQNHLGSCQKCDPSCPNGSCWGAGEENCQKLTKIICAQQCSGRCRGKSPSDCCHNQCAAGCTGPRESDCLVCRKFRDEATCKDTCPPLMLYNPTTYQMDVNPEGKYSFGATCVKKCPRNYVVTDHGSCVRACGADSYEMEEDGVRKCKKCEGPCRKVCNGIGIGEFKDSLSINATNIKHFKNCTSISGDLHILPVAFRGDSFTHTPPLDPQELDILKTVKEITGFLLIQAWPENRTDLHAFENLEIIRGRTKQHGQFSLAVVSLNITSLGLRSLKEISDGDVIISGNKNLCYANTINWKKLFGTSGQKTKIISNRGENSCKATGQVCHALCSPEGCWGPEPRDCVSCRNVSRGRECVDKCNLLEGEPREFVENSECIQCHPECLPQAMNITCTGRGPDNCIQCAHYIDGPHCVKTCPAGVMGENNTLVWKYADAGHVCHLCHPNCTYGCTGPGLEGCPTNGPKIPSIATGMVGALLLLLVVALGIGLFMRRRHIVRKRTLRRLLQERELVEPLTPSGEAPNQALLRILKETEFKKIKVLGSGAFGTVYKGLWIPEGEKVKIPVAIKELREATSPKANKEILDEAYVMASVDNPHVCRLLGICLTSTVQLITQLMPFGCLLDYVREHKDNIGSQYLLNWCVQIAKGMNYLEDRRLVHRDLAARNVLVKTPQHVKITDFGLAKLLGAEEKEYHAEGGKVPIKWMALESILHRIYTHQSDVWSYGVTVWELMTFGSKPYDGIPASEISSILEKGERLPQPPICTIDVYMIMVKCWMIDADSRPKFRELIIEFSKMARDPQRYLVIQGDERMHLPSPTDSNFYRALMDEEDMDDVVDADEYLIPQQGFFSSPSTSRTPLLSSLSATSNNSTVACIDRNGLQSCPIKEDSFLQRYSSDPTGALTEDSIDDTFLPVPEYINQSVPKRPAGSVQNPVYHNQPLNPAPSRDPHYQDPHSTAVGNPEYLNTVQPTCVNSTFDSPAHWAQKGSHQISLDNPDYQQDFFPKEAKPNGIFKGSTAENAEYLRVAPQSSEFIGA
Kind of assay: EGFR binding affinity (LanthaScreen TR-FRET). The conditions noted are these: Kinase Tracer 199, 5 h incubation. In short, it runs like this: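 TR-FRET binding (LanthaScreen) with recombinant EGFR; signal measured across a compound concentration range. IC50 obtained by fitting RFU against log[inhibitor] to a variable-slope model.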

Assay [4] has as its target T3, Recombinant BTK^C481S kinase (Homo sapiens, UniProt Q06187, C481S).
T3 construct: purchased SignalChem
Put plainly: BTK C481S binding affinity (LanthaScreen TR-FRET). The conditions noted are these: Kinase Tracer 236, 5 h incubation. In short, it runs like this:
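BTK C481S tracer-displacement TR-FRET: 5 nM His-tagged kinase, 2 nM Eu anti-His antibody and 30 nM Kinase Tracer 236 incubated with titrated inhibitor for 5 h in Kinase Buffer A. Read at 340 nm excitation, 615/665 nm emission; IC50 from variable-slope log[inhibitor]–response fit.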

Where two headings read alike, the source gives them in different places. Bounds are passed on as bounds.

T3 sequence (Q06187 whole entry C481S): as the sequence (Q06187 whole entry) above, with C481S counted along it

Turning to `CNc1c(C(N)=O)c(-c2ccc(CNC(=O)c3ccccc3OC)cc2)nn1C1CCCC1` [Example 60, 1-cyclopentyl-3-[4-[[(2-methoxybenzoyl)amino]methyl]phenyl]-5-(methylamino)pyrazole-4-carboxamide], the IC50 in assay [1] (Homo sapiens, OCI-Ly10, 72 h) is 10 to 100 nM; in assay [2], < 10 nM; in assay [3], 100 to 1000 nM; in assay [4], < 10 nM.
For `COc1ccccc1C(=O)NCc1ccc(-c2nn(CC3CCCCC3)c(N)c2C(N)=O)cc1` [Example 17, 5-amino-1-(cyclohexylmethyl)-3-[4-[[(2-methoxybenzoyl)amino]methyl]phenyl]pyrazole-4-carboxamide], the IC50 in assay [1] (Homo sapiens, OCI-Ly10, 72 h) is 10 to 100 nM; in assay [2], < 10 nM; in assay [3] it was 100 to 1000 nM; in assay [4], < 10 nM.
In the case of `COc1ccccc1C(=O)NCc1ccc(-c2nn(C3CCOCC3F)c(N)c2C(N)=O)cc1` (single isomer, unassigned) [Example 96, 5-amino-1-[3-fluorotetrahydropyran-4-yl]-3-[4-[[(2-methoxybenzoyl)amino]methyl]phenyl]pyrazole-4-carboxamide], the IC50 in assay [1] was 10 to 100 nM; in assay [2], < 10 nM; in assay [3], 1000 to 10000 nM; in assay [4], < 10 nM.
Consider `COc1ccccc1C(=O)NCc1ccc(-c2nn(C3CCC(O)CC3)c(N)c2C(N)=O)cc1` (single isomer, unassigned) [Example 34a, 5-Amino-1-(4-hydroxycyclohexyl)-3-[4-[[(2-methoxybenzoyl)amino]methyl]phenyl]pyrazole-4-carboxamide], for which the IC50 in assay [1] is 10 to 100 nM; in assay [2] it was < 10 nM; in assay [3] it was 100 to 1000 nM; in assay [4] it was < 10 nM.
As to `COc1ccc(F)cc1C(=O)NCc1ccc(-c2nn(C(C)C3CCOC3)c(N)c2C(N)=O)cc1` (mixture of isomers) [Example 172, 5-amino-3-[4-[[(5-fluoro-2-methoxy-benzoyl)amino]methyl]phenyl]-1-(1-tetrahydrofuran-3-ylethyl)pyrazole-4-carboxamide], the IC50 in assay [1] (Homo sapiens, OCI-Ly10, 72 h) was 100 to 1000 nM; in assay [2], < 10 nM; in assay [3], 1000 to 10000 nM; in assay [4], < 10 nM.
Take `COc1ccccc1C(=O)NCc1ccc(-c2nn(C3CCOC(C(F)(F)F)C3)c(N)c2C(N)=O)cc1` (stereo not shown) [Example 111, 5-amino-3-[4-[[(2-methoxybenzoyl)amino]methyl]phenyl]-1-[2-(trifluoromethyl)tetrahydropyran-4-yl]pyrazole-4-carboxamide]: the IC50 is 100 to 1000 nM in assay [1] (Homo sapiens, OCI-Ly10, 72 h); < 10 nM in assay [2]; 100 to 1000 nM in assay [3]; < 10 nM in assay [4].
In the case of `COc1ccc(F)cc1C(=O)NCc1ccc(-c2nn([C@@H]3CCOC3)c(N)c2C(N)=O)cc1` [Example 164, 5-amino-3-[4-[[(5-fluoro-2-methoxy-benzoyl)amino]methyl]phenyl]-1-[(3R)-tetrahydrofuran-3-yl]pyrazole-4-carboxamide], the IC50 in assay [1] (Homo sapiens, OCI-Ly10, 72 h) is 10 to 100 nM; in assay [2] it was < 10 nM; in assay [3], 1000 to 10000 nM; in assay [4] it was < 10 nM.
`COc1ccc(F)cc1C(=O)NCc1ccc(-c2nn(C3CCOC3)c(N)c2C(N)=O)cc1F` (stereo not shown) [Example 119, 5-amino-3-[3-fluoro-4-[[(5-fluoro-2-methoxy-benzoyl)amino]methyl]phenyl]-1-tetrahydrofuran-3-yl-pyrazole-4-carboxamide]: the IC50 is 10 to 100 nM in assay [1] (Homo sapiens, OCI-Ly10, 72 h); < 10 nM in assay [2]; 1000 to 10000 nM in assay [3]; < 10 nM in assay [4].
Consider `CCOC(=O)C1CCCC(n2nc(-c3ccc(CNC(=O)c4ccccc4OC)cc3)c(C(N)=O)c2N)C1` (single isomer, unassigned) [Example 55, ethyl 3-[5-amino-4-carbamoyl-3-[4-[[(2-methoxybenzoyl)amino]methyl]phenyl]pyrazol-1-yl]cyclohexanecarboxylate], for which the IC50 in assay [1] is 10 to 100 nM; in assay [2], < 10 nM; in assay [3] it was 100 to 1000 nM; in assay [4] it was < 10 nM.
`COc1ccc(F)cc1C(=O)NCc1ccc(-c2nn(C3CCN(C)CC3(F)F)c(N)c2C(N)=O)cc1` (stereo not shown) [Example 191, 5-amino-1-(3,3-difluoro-1-methyl-4-piperidyl)-3-[4-[[(5-fluoro-2-methoxy-benzoyl)amino]methyl]phenyl]pyrazole-4-carboxamide]: the IC50 in assay [1] (Homo sapiens, OCI-Ly10, 72 h) is 10 to 100 nM; in assay [2] it was < 10 nM; in assay [3] it was 1000 to 10000 nM; in assay [4], < 10 nM.
For the compound `COc1ccc(F)cc1C(=O)NCc1ccc(-c2nn(C3CCOC3)c(N)c2C(N)=O)cc1` (stereo not shown) [Example 114, 5-amino-3-[4-[[(5-fluoro-2-methoxy-benzoyl)amino]methyl]phenyl]-1-tetrahydrofuran-3-yl-pyrazole-4-carboxamide], the IC50 in assay [1] (Homo sapiens, OCI-Ly10, 72 h) is 10 to 100 nM; in assay [2], < 10 nM; in assay [3], 1000 to 10000 nM; in assay [4] it was < 10 nM.
Turning to `COc1ccc(F)cc1C(=O)NCc1ccc(-c2nn(C(C)C(F)(F)F)c(N)c2C(N)=O)cc1F` (stereo not shown) [Example 177, 5-amino-3-[3-fluoro-4-[[(5-fluoro-2-methoxy-benzoyl)amino]methyl]phenyl]-1-(2,2,2-trifluoro-1-methyl-ethyl)pyrazole-4-carboxamide], the IC50 in assay [1] (Homo sapiens, OCI-Ly10, 72 h) is 10 to 100 nM; in assay [2], < 10 nM; in assay [3], 1000 to 10000 nM; in assay [4] it was < 10 nM.
For `COc1ccc(F)cc1C(=O)NCc1ccc(-c2nn(C3(C(F)(F)F)CCOCC3)c(N)c2C(N)=O)cc1` [Example 190, 5-Amino-3-[4-[[(5-fluoro-2-methoxy-benzoyl)amino]methyl]phenyl]-1-[4-(trifluoromethyl)tetrahydropyran-4-yl]pyrazole-4-carboxamide], the IC50 in assay [1] (Homo sapiens, OCI-Ly10, 72 h) fell in the range of 1000 to 10000 nM; in assay [2] it was 100 to 1000 nM; in assay [3] it was 1000 to 10000 nM; in assay [4], 10 to 100 nM.
